US20170022159A1, “HETEROCYCLIC AMPHOTERIC COMPOUNDS” (Eastman Chemical Company, priority 2014, published 2017)
Read-outs that look alike come from different tables or passages of the source.

Columns and labels:
[1] = for Percent amphoteric remaining: buffer
Method: The resulting mixture was placed in a 50° C. oven. Samples were taken periodically and analyzed for the amount of (4-lauroyloxy-1-methylpiperidinium-1-yl)acetate remaining by quantitative HPLC.

[2] = Foaming Properties of Surface-Active Agents (ASTM 1173-07), foam height; format: physicochemical
Excerpt: The Standard Test Method for Foaming Properties of Surface-Active Agents (ASTM 1173-07) was used to determine the foaming properties of the heterocyclic amphoteric compounds of the formula 1 described herein. This method generates foam under low-agitation conditions and is generally used for moderate- and high-foam surfactants. This test gathers data on initial foam height and foam decay. Foam decay provides information on foam stability.
The apparatus for carrying out this test includes a jacketed column and a pipet. The jacketed column serves as a receiver, while the pipet delivers the surface-active solution. Solutions of each surface-active agent were prepared. The solution of the heterocyclic amphoteric compound to be tested was added to the receiver (50 mL) and to the pipet (200 mL). The pipet was positioned above the receiver and opened. As the solution fell and made contact with the solution in the receiver, foam was generated. When the pipet was empty, the time was noted and an initial foam height was recorded. The foam height was recorded each minute for five minutes. Exact size specifications for the glassware can be found in ASTM 1173-07. The foam height results for each heterocyclic amphoteric compound 1 and representative standards are listed below in Tables 1 (0.1% concentration) and 2 (1% concentration).

[3] = Fluorimetric determination of critical micelle concentration (DPH dye); format: physicochemical
Method: The critical micelle concentration (CMC) was also determined for each compound. The CMC is the concentration of surfactant above which micelles spontaneously form. CMC is an important characteristic of a surfactant. At surfactant concentrations below the CMC, surface tension varies widely with surfactant concentration. At concentrations above the CMC, surface tension remains fairly constant. A lower CMC indicates less surfactant is needed to saturate interfaces and form micelles. Typical CMC values are less than 1 weight percent (10,000 ppm).
The fluorimetric determination of CMC described by Chattopadhyay and London (Analytical Biochemistry, Vol. 139, pp. 408-412 (1984)) was used to obtain the critical micelle concentrations found in Table 3 below. This method employs the fluorescent dye 1,6-diphenyl-1,3,5-hexatriene (DPH) in a solution of the surface-active agent. The analysis is based on differences in fluorescence upon incorporation of the dye into the interior of the micelles. As the solution exceeds CMC, a large increase in fluorescence intensity is observed.

[4] = 1 g/L (0.1 weight %), t = 0 min
[5] = 1 g/L (0.1 weight %), t = 1 min
[6] = 1 g/L (0.1 weight %), t = 2 min
[7] = 1 g/L (0.1 weight %), t = 3 min
[8] = 1 g/L (0.1 weight %), t = 4 min
[9] = 1 g/L (0.1 weight %), t = 5 min
[10] = 10 g/L (1.0 weight %), t = 0 min
[11] = 10 g/L (1.0 weight %), t = 1 min
[12] = 10 g/L (1.0 weight %), t = 2 min
[13] = 10 g/L (1.0 weight %), t = 3 min
[14] = 10 g/L (1.0 weight %), t = 4 min
[15] = 10 g/L (1.0 weight %), t = 5 min

Row | Compound | Foam height (cm) at time t (min) [2, 4] | Foam height (cm) at time t (min) [2, 5] | Foam height (cm) at time t (min) [2, 6] | Foam height (cm) at time t (min) [2, 7] | Foam height (cm) at time t (min) [2, 8] | Foam height (cm) at time t (min) [2, 9] | Foam height (cm) at time t (min) [2, 10] | Foam height (cm) at time t (min) [2, 11] | Foam height (cm) at time t (min) [2, 12] | Foam height (cm) at time t (min) [2, 13] | Foam height (cm) at time t (min) [2, 14] | Foam height (cm) at time t (min) [2, 15] | CMC [3] | CMC (ppm) [3] | also measured
1 | 3-(cocoyloxypropyldimethylammonio)acetate [Comparative Example 2, reference compound] |  |  |  |  |  |  |  |  |  |  |  |  |  |  | Percent amphoteric remaining ([1]; 0 h, pH 5): 100%; Percent amphoteric remaining ([1]; 336 h, pH 5): 74%; Percent amphoteric remaining ([1]; 1344 h, pH 5): 73%; Loss of compound (in words) ([1]; milder conditions (pH 5, 45° C.)): significant loss
2 | CCCCCCCCCCCC(=O)OC1CC[N+](C)(CC(=O)[O-])CC1 (centres unmarked) [Example 9, (4-lauroyloxy-1-methylpiperidinium-1-yl)acetate] | 17.0 cm | 17.0 cm | 16.5 cm | 16.5 cm | 16.0 cm | 16.0 cm | 16.5 cm | 16.0 cm | 16.0 cm | 15.5 cm | 15.5 cm | 15.5 cm |  |  | Percent amphoteric remaining ([1]; 0 h, pH 4.5): 100%; Percent amphoteric remaining ([1]; 336 h, pH 4.5): 98%; Percent amphoteric remaining ([1]; 1008 h, pH 4.5): 96%; Percent amphoteric remaining ([1]; 1344 h, pH 4.5): 85%; Loss of compound (in words) ([1]; extended incubation in pH 4.5 water at 50° C.): limited loss
3 | CCCCCCCCCCCC(=O)OCC1CCC[N+](C)(CC(=O)[O-])C1 (centres unmarked) [Example 11, (3-lauroyloxymethyl-1-methylpiperidinium-1-yl)acetate] | 18.5 cm | 17.5 cm | 17.5 cm | 17.0 cm | 16.5 cm | 16.0 cm | 19.0 cm | 18.0 cm | 18.0 cm | 17.5 cm | 17.5 cm | 17.5 cm | 0.248 mM | 95.0 ppm | 
4 | CCCCCCCCCCCCOS(=O)(=O)O.N [ammonium lauryl sulfate, reference compound] |  |  |  |  |  |  |  |  |  |  |  |  | 1.38 mM | 392 ppm | 
5 | CCCCCCCCCCCCOS(=O)(=O)[O-].[Na+] [sodium lauryl sulfate, reference compound] |  |  |  |  |  |  |  |  |  |  |  |  | 8.27 mM | 2386 ppm | 
6 | (3-cocoyloxymethyl-1-methylpiperidinium-1-yl)acetate [Example 5] | 16.5 cm | 16.0 cm | 15.5 cm | 15.5 cm | 15.0 cm | 15.0 cm | 18.0 cm | 17.5 cm | 17.0 cm | 17.0 cm | 17.0 cm | 16.5 cm | 0.062 mM | 23.7 ppm | 
7 | (4-cocoyloxy-1-methylpiperidinium-1-yl)acetate [Example 3] | 16.5 cm | 16.0 cm | 15.5 cm | 15.5 cm | 15.5 cm | 15.5 cm | 18.5 cm | 18.0 cm | 17.5 cm | 17.0 cm | 17.0 cm | 17.0 cm | 0.062 mM | 22.9 ppm | 
8 | (4-cocoyloxymethyl-1-methylpiperidinium-1yl)acetate [Example 7] | 16.0 cm | 14.5 cm | 12.5 cm | 9.0 cm | 6.0 cm | 4.0 cm | 18.0 cm | 17.0 cm | 17.0 cm | 17.0 cm | 16.5 cm | 16.5 cm | 0.050 mM | 19.2 ppm | 
9 | (4-lauramido-1-methylpiperidinium-1-yl)acetate [Example 17] |  |  |  |  |  |  |  |  |  |  |  |  | 1.54 mM | 566.5 ppm | 
10 | cocamidopropyl betaine [reference compound] | 17.0 cm | 16.0 cm | 16.0 cm | 16.0 cm |  | 15.5 cm | 17.5 cm | 16.5 cm |  | 16.0 cm | 16.0 cm | 16.0 cm | 0.069 mM | 24.5 ppm | 
